# Reference: publication PMC10354432, “Preparation of caffeic acid grafted chitosan self-assembled micelles to enhance oral bioavailability and antibacterial activity of quercetin” (Frontiers in Veterinary Science, 2023)
# Experiments:
# [1] = In vivo pharmacokinetics in white-finned broiler chickens; details: Chinese white-finned broiler, po, i.g., 36 mg/kg
# Text: The experimental procedures were reviewed and approved by the Institutional Animal Care and Use Committee of Hebei Agricultural University and carried out in accordance with the Guidelines for the Care and Use of Laboratory Animals of China. In this study, 12 healthy 30 days old Chinese white-finned broilers were used for the trial. All broilers were reared from 1 day of age and were provided with adequate basal diets and water, which were formulated to meet or exceed the nutritional requirements of broilers. Room temperature was maintained at 35°C for the first 3 days, then decreased to 28–30°C for the next 2 weeks and 25°C for the rest of the period. Broilers were randomly divided into two treatment groups (six broilers per treatment, n = 6) before the experiment, fasted for 18 h, and watered ad libitum. The experiment was administered by instillation, and blood was collected under the wings during the experiment according to the time designed for the experiment, and the plasma was centrifuged and separated for storage in a refrigerator at −20°C for processing and analysis. At the end of the experiment, broilers were euthanized.
# The Waters Acquity UPLC H-Class system (Waters, Milford, MA, USA) includes a four-stage solvent manager, an autosampler set at 4°C and a Waters Acquity UPLC Shield RP18 column (100 × 2.1 mm, 1.7 μm, Waters. Milford, MA, USA). The mobile phase was methanol-0.1% phosphate (72:28, v/v). Detection was performed by a photodiode array detector at 373 nm at a flow rate of 0.2 mL/min. This assay was developed for the determination of QR in blood plasma.
# A 200μL aliquot of plasma was sequentially added 20μL of 40μg/mL kaempferol internal standard, 100 μL of 25% HCL and 2 mL of ethyl acetate vortexed for 2 min equally. This mixture was centrifuged at 5000 rpm for 10 min, and the supernatant was transferred into a centrifuge tube and then concentrated to dryness under nitrogen. The analytes were dissolved in 200 μL of methanol/0.1% phosphoric acid water (4:1, v/v).
# White-finned broilers were randomly divided into two experimental groups, one for the QR solution group and the other for the CA-g-CS/QR group, with six replicates in each group. The CA-g-CS/QR solution and the original QR solution were prepared and administered to the chickens at a dose of 36 mg/kg, and blood was collected under the wings at 15, 30, 60, 120, 240, 360, 480, 720, 1440, and 2160 min after the administration, placed in sodium heparin anticoagulation tubes and centrifuged to separate the plasma.
# Pharmacokinetic parameters were estimated by blood concentration-time curves from Phoenix WinNonlin software. The […] was used to calculate the terminal elimination half-life (t1/2, λz), the area under the blood concentration-time curve (AUC0 − t), terminal feed time (AUC0−∞), total clearance (CL), and volume of distribution (Vd, λz). The peak blood concentration (Cmax) and time to peak (Tmax) were read directly from the observed individual blood concentration-time data. For instillation administration, the relative bioavailability (F) was calculated using the AUC0−∞ of CA-g-CS/QR versus QR.
# [2] = system: Escherichia coli of chicken origin; experiment: MIC and MBC, micro broth twofold dilution; format: cell-based
# Experimental: (§1) We selected Escherichia coli CMCC44102 and Escherichia coli of chicken origin as experimental strains to determine their Minimum Inhibitory Concentration (MIC) and Minimum Bactericidal Concentration (MBC). The culture medium was configured and autoclaved, and the bacteria were cultured. The bacterial broth of the logarithmic growth period was diluted by micro broth twofold dilution method, 100 μL broth was added to each well of a sterile 96-well plate, and then 100 μL of prepared drug solution was added to the first well respectively, mixed well, and then diluted in multiples until the last well was mixed and 100 μL of the mixture was discarded. Each well was added with 100 μL of the prepared bacterial diluent, and a positive control (with bacteria and no drug) and a negative control (without bacteria and no drug) were set up. […] The tritriazolium chloride (TTC) method was used to determine the MIC results. 5 g/L TTC was added to each well of the 96-well plate after incubation for 1 h at 37°C, and the MIC was determined as the lowest antibacterial drug concentration in the wells with bacterial growth and the wells without bacterial growth. 100 μL of the liquid from each well clarified in the above test group was spread on solid, and the lowest drug concentration for no colony growth was its MBC. Agar plate experiments were also performed using the Oxford cup method, using CA-g-CS/QR with QR aqueous solution and maintaining the same concentration, sterile water group and CA-g-CS group were set, and three parallel experiments were performed to further confirm the antibacterial activity of the compounds.
# [3] = system: Escherichia coli CMCC44102; experiment: MIC and MBC, micro broth twofold dilution; format: cell-based
# Experimental: as §1
# [4] = Particle size and morphology by transmission electron microscopy; format: physicochemical
# Text: We evaluated the successful preparation of CA-g-CS by UV absorption and IR detection of CS, CA, and CA-g-CS and compared the solubility of CS as well as CA-g-CS in water. The morphology of CA-g-CS/QR and QR was characterized by transmission electron microscopy. CA-g-CS/QR and QR were dropped on clean copper grids, negatively stained with 2% phosphotungstic acid solution, and the water was evaporated in the air at room temperature. The samples were dried and placed under transmission electron microscopy to observe the morphology.
# [5] = Stability of QR in white broiler plasma; format: in vitro ADME
# Experimental: Precision and accuracy were assessed by running the standards (n = 6) for 1 day and three consecutive days for three levels of concentration (10.0, 100.0, and 500.0 ng/ml) at low, medium, and high. The stability of QR in the samples was also investigated by sampling and analyzing the three levels of spiked plasma at −20°C for 1 week and 4°C for 24 h.
# [6] = rats; cited from earlier work
# [7] = no colony growth on solid medium
structure (smiles),measurement,setting,value
"O=c1c(O)c(-c2ccc(O)c(O)c2)oc2cc(O)cc(O)c12 [QR, Quercetin]",AUC(0-inf),[1]; n = 6,2840 ng·h/mL
same,AUC(0-t),[1]; n = 6,2760 ng·h/mL
same,CL/F,[1]; n = 6,219 ± 44.1 mL/min/kg
same,Cmax,[1]; n = 6,278 ± 18.5 ng/mL
same,Tmax,[1]; n = 6,2 h
same,half-life,"[1]; n = 6, read-out: T1/2, λz",6.98 ± 0.704 h
same,Vd/F,"[1]; n = 6, read-out: Vd, λz/F",132 ± 25.5 L/kg
same,MIC,"[2]; 24 h at 37°C, TTC method",0.0585 mol/L
same,MBC,[2]; [7],0.117 mol/L
same,MIC,"[3]; 24 h at 37°C, TTC method",0.013 mol/L
same,MBC,[3]; [7],0.026 mol/L
same,particle size,[4],1.5 ± 0.1 μm
same,"remaining at 24 h, 10 ng/mL","[5]; prepared plasma sample, 10 ng/mL, read-out: Remaining (%) in prepared plasma sample stored at 4°C for 24h",92.8 ± 2.94%
same,"remaining at 24 h, 100 ng/mL","[5]; prepared plasma sample, 100 ng/mL, read-out: Remaining (%) in prepared plasma sample stored at 4°C for 24h",97.2 ± 5.63%
same,"remaining at 24 h, 500 ng/mL","[5]; prepared plasma sample, 500 ng/mL, read-out: Remaining (%) in prepared plasma sample stored at 4°C for 24h",99.98 ± 0.45%
same,"remaining at 168 h, 10 ng/mL","[5]; spiked plasma, 10 ng/mL, read-out: Remaining (%) in plasma stored at −20°C for 7 days",96.6 ± 6.62%
same,"remaining at 168 h, 100 ng/mL","[5]; spiked plasma, 100 ng/mL, read-out: Remaining (%) in plasma stored at −20°C for 7 days",103 ± 8.97%
same,"remaining at 168 h, 500 ng/mL","[5]; spiked plasma, 500 ng/mL, read-out: Remaining (%) in plasma stored at −20°C for 7 days",93.5 ± 1.78%
same,oral bioavailability,[6],< 17%
